{"source": "paper PMC10667598", "about": "(Scientific Reports, 2023)", "target": "T1, VcCBP (Vibrio cholerae, UniProt Q9KUA3)", "T1 construct": "gene VC_0620", "T1 sequence (Q9KUA3 28-556 limits assumed)": "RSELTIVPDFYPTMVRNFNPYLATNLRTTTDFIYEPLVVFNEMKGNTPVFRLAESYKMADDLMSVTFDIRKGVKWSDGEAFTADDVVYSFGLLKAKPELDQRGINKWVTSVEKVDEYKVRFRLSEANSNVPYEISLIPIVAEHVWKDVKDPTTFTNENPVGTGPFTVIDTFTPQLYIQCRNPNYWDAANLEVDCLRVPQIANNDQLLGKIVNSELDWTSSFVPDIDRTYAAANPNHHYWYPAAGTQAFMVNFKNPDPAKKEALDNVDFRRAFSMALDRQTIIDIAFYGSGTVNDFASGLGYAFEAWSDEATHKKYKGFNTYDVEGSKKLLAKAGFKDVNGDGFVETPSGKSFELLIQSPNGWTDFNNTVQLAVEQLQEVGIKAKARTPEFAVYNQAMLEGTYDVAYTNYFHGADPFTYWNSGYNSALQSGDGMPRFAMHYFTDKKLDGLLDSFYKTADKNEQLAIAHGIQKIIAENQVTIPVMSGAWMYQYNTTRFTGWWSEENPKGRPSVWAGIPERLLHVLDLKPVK", "data": [{"compound": "CC(=O)N[C@H]1[C@H](O[C@H]2[C@H](O)[C@@H](NC(C)=O)C(O)O[C@@H]2CO)O[C@H](CO)[C@@H](O)[C@@H]1O", "note": "(stereo partly shown) [(GlcNAc)2]", "values": [{"measurement": "Kd", "value": 245, "unit": "nM"}]}]}
